Source: the supplement of paper PMC10307832

Legend:
Assay in all cases: relative viability (nuclei count vs DMSO), 5 days (fraction); higher = more cells survive
[1] = compound: C1/C(=C\C2=CC=CS2)/C(=O)/C(=C/C3=CC=CS3)/C1 + COc1cc2c(Oc3ccc(NC(=O)C4(C(=O)Nc5ccc(F)cc5)CC4)cc3F)ccnc2cc1OCCCN1CCOCC1 [Foretinib] (partner 0.25 µM)
How it was run: (§1)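 Lung cancer cell lines in 1536-well plates were dosed by pin tool the day after seeding, either with one drug alone or with a fixed anchor-drug dose plus five library-drug doses (not always all listed) in √10 steps. After 5 days, cells were fixed and their nuclei stained in one step (final 0.05% Triton X-100, 1% formaldehyde, 1 ug/ml Hoechst), then counted on 4× images. Relative viability is the nuclei count in treated wells divided by that in vehicle wells. Values are medians of duplicate plates.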

[2] = compound: C1/C(=C\C2=CC=CS2)/C(=O)/C(=C/C3=CC=CS3)/C1 + CS(=O)(=O)CCNCc1ccc(-c2ccc3ncnc(Nc4ccc(OCc5cccc(F)c5)c(Cl)c4)c3c2)o1 [Lapatinib] (partner 2 µM)
How it was run: as §1

TPCA-1 + Tozasertib = compound: C1=CC(=CC=C1C2=CC(=C(S2)NC(=O)N)C(=O)N)F [TPCA-1] + Cc1cc(Nc2cc(N3CCN(C)CC3)nc(Sc3ccc(NC(=O)C4CC4)cc3)n2)n[nH]1 [Tozasertib] (partner 0.1 µM)
How it was run: as §1

TPCA-1 + Decitabine = compound: C1=CC(=CC=C1C2=CC(=C(S2)NC(=O)N)C(=O)N)F [TPCA-1] + Nc1ncn([C@H]2C[C@H](O)[C@@H](CO)O2)c(=O)n1 [Decitabine] (partner 2 µM)
How it was run: as §1

Cell Line | relative viability ([1]; first compound 0.2 µM) | relative viability ([1]; first compound 0.6325 µM) | relative viability ([1]; first compound 2 µM) | relative viability ([1]; first compound 6.325 µM) | relative viability ([1]; first compound 20 µM) | relative viability ([2]; first compound 0.2 µM) | relative viability ([2]; first compound 0.6325 µM) | relative viability ([2]; first compound 2 µM) | relative viability ([2]; first compound 6.325 µM) | relative viability ([2]; first compound 20 µM) | relative viability (TPCA-1 + Tozasertib; first compound 0.04 µM) | relative viability (TPCA-1 + Tozasertib; first compound 0.4 µM) | relative viability (TPCA-1 + Tozasertib; first compound 1.265 µM) | relative viability (TPCA-1 + Tozasertib; first compound 4 µM) | relative viability (TPCA-1 + Decitabine; first compound 0.04 µM) | relative viability (TPCA-1 + Decitabine; first compound 0.1265 µM) | relative viability (TPCA-1 + Decitabine; first compound 0.4 µM) | relative viability (TPCA-1 + Decitabine; first compound 1.265 µM) | relative viability (TPCA-1 + Decitabine; first compound 4 µM) | relative viability (TPCA-1 + Tozasertib; first compound 0.1265 µM)
BEN | 0.7 | 0.646 | 0.78 | 0.745 | 0.655 | 0.621 | 0.801 | 0.795 | 0.488 | 0.611 | 0.548 | 0.526 | 0.628 | 0.403 | 0.875 | 0.625 | 0.813 | 0.838 | 0.387 | 
COR-L23 | 1.09 | 1.09 | 0.874 | 0.859 | 0.958 | 0.923 | 1.02 | 0.841 | 0.859 | 0.92 | 0.155 | 0.18 | 0.134 | 0.129 | 0.498 | 0.394 | 0.466 | 0.385 | 0.403 | 0.168
COR-L 105 | 1.49 | 1.02 | 1.31 |  | 1.03 | 0.355 | 0.37 | 0.38 | 0.304 | 0.361 | 0.398 | 0.309 | 0.349 | 0.335 | 0.711 | 0.622 | 0.735 | 0.612 | 0.537 | 0.355
EKVX | 0.82 | 0.696 | 0.603 | 0.615 | 0.778 | 0.184 | 0.207 | 0.264 | 0.185 | 0.199 | 0.387 | 0.428 | 0.354 | 0.284 | 0.366 |  | 0.383 | 0.316 | 0.345 | 0.332
EMC-BAC-2 | 1.01 | 1.03 | 0.973 | 0.656 | 1.09 | 0.931 | 0.873 | 0.952 | 0.866 | 0.843 | 0.251 | 0.302 | 0.498 | 0.25 | 0.997 | 0.972 | 0.939 | 0.852 | 0.898 | 0.306
EPLC-272H | 0.602 | 0.776 | 0.657 | 0.594 | 0.601 | 1.04 | 0.952 | 1.1 | 0.889 | 0.962 | 0.652 | 0.31 | 0.442 | 0.251 | 0.458 | 0.318 | 0.41 | 0.372 | 0.382 | 0.277
H3255 | 0.847 | 1.09 | 1.1 | 0.819 | 0.83 | 0.235 | 0.296 | 0.127 | 0.227 | 0.237 | 0.612 | 0.623 | 0.58 | 1.03 | 0.71 | 0.553 | 0.676 | 0.513 | 0.475 | 0.6
HARA | 0.875 | 0.992 | 0.973 | 0.832 | 0.842 | 0.768 | 0.657 | 0.874 | 0.321 | 0.818 | 0.136 | 0.0913 | 0.0917 | 0.0916 | 0.576 | 0.54 | 0.844 | 0.462 | 0.492 | 0.118
HCC-15 | 1.09 | 0.994 | 1.03 | 0.917 | 1.06 | 0.929 | 0.897 | 0.835 | 0.762 | 0.854 | 0.413 | 0.338 | 0.276 | 0.15 | 0.731 | 0.546 | 0.708 | 0.625 | 0.374 | 0.438
HCC-78 | 0.581 | 0.602 | 0.56 | 0.444 | 0.481 | 0.759 | 0.828 | 1.1 | 0.562 | 0.814 | 0.406 | 0.427 | 0.477 | 0.205 | 0.788 | 0.698 | 0.565 | 0.711 | 0.529 | 0.413
HCC-366 | 0.919 | 0.915 | 0.99 | 0.849 | 0.904 | 1.14 | 0.926 | 1.07 | 0.84 | 0.931 | 0.107 | 0.0742 | 0.0631 | 0.0314 |  | 0.285 | 0.361 | 0.271 | 0.322 | 0.135
HCC-827 | 1.04 | 0.939 | 1.02 | 0.96 | 1 | 0.21 | 0.177 | 0.205 | 0.191 | 0.204 | 0.472 | 0.389 | 0.443 | 0.272 | 0.364 | 0.326 | 0.317 | 0.31 | 0.31 | 0.42
HOP-62 | 1.08 | 1.07 | 1.07 | 0.922 | 1.09 | 0.902 | 0.589 | 0.9 | 0.932 | 0.983 | 0.368 | 0.392 | 0.292 | 0.27 | 0.261 | 0.198 | 0.215 | 0.198 | 0.214 | 0.367
LC-2-ad | 0.971 | 0.941 | 0.99 | 0.817 | 0.89 | 0.891 | 1.03 | 0.939 | 0.747 | 0.973 | 0.514 | 0.469 | 0.459 | 0.315 | 0.773 | 0.678 | 0.741 | 0.854 | 0.776 | 0.41
LCLC-97TM1 | 0.965 | 0.97 | 0.995 | 0.797 | 0.943 | 1.14 | 0.806 | 1.15 | 0.955 | 1.18 | 0.242 | 0.223 | 0.185 | 0.117 | 0.274 | 0.23 | 0.214 | 0.247 | 0.243 | 0.261
LK-2 | 1.57 | 1.51 | 1.11 | 1.18 | 1.41 | 0.897 | 0.887 | 1.2 | 1.05 | 0.988 | 0.167 | 0.187 | 0.172 | 0.16 | 0.347 | 0.21 | 0.331 | 0.27 | 0.175 | 0.176
